Results taken from US11781191B2, “Compositions and method for detecting Mycobacterium riyadhense” (King Abdullah University of Science and Technology, priority 2019, dated 2023).

Tested on: M. riyadhense isolates
Test: antimicrobial susceptibility testing of clinical isolates
Type: cell-based, Mycobacterium riyadhense
Settings: eight clinical M. riyadhense isolates; share of isolates susceptible

Row | Compound | susceptibility of isolates
1 | CO[C@H]1/C=C/O[C@@]2(C)Oc3c(C)c(O)c4c(c3C2=O)C2=NC3(CCN(CC(C)C)CC3)NC2=C(NC(=O)/C(C)=C\C=C\[C@H](C)[C@H](O)[C@@H](C)[C@@H](O)[C@@H](C)[C@H](OC(C)=O)[C@@H]1C)C4=O [rifabutin] | 100%
2 | CO[C@H]1/C=C/O[C@@]2(C)Oc3c(C)c(O)c4c(O)c(c(/C=N/N5CCN(C)CC5)c(O)c4c3C2=O)NC(=O)/C(C)=C\C=C\[C@H](C)[C@H](O)[C@@H](C)[C@@H](O)[C@@H](C)[C@H](OC(C)=O)[C@@H]1C [rifampin] | 100%
3 | CC[C@H]1OC(=O)[C@H](C)[C@@H](O[C@H]2C[C@@](C)(OC)[C@@H](O)[C@H](C)O2)[C@H](C)[C@@H](O[C@@H]2O[C@H](C)C[C@H](N(C)C)[C@H]2O)[C@](C)(OC)C[C@@H](C)C(=O)[C@H](C)[C@@H](O)[C@]1(C)O [clarithromycin] | 100%
4 | NCC[C@H](O)C(=O)N[C@@H]1C[C@H](N)[C@@H](O[C@H]2O[C@H](CN)[C@@H](O)[C@H](O)[C@H]2O)[C@H](O)[C@H]1O[C@H]1O[C@H](CO)[C@@H](O)[C@H](N)[C@H]1O [amikacin] | 100%
5 | trimethoprim-sulfamethoxazole | 100%
6 | CC[C@@H](CO)NCCN[C@@H](CC)CO [ethambutol] | 100%
7 | CC(=O)NC[C@H]1CN(c2ccc(N3CCOCC3)c(F)c2)C(=O)O1 [linezolid] | 100%
8 | COc1c(N2C[C@@H]3CCCN[C@@H]3C2)c(F)cc2c(=O)c(C(=O)O)cn(C3CC3)c12 [moxifloxacin] | 100%
